Laboratory results reported in ChEMBL document CHEMBL1130748, “Design and synthesis of monocyclic beta-lactams as mechanism-based inhibitors of human cytomegalovirus protease” (Bioorg Med Chem Lett, 1998).

Key:
Human betaherpesvirus 5 [1] = test: Compound was evaluated for antiviral activity measured as percentage inhibition determined at a concentration of 100 (uM) against mutant alpha-Ala HCMV protease; assay type: functional
[2] = biological target: Capsid scaffolding protein (Human cytomegalovirus (strain AD169) (HHV-5) (Human herpesvirus 5), UniProt P16753); test: Concentration required to inhibit the mutant alpha-Ala HCMV protease by 50% was determined
Sequence of Capsid scaffolding protein (P16753 1-256 limits assumed): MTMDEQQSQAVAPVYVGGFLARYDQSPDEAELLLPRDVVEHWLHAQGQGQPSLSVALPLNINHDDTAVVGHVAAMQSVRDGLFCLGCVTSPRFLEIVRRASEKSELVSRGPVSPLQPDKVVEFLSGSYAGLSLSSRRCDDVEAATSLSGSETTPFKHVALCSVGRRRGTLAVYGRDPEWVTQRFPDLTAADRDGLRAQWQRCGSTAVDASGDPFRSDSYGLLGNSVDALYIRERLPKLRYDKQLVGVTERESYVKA

Human betaherpesvirus 5 [3] = test: Compound was evaluated for antiviral activity measured as percentage inhibition determined at a concentration of 500 (uM) against mutant alpha-Ala HCMV protease; assay type: functional
Acetylcholinesterase = Acetylcholinesterase (Homo sapiens, UniProt P22303); test: Concentration required to inhibit the mammalian Acetylcholinesterase by 50% was determined
Sequence of Acetylcholinesterase (P22303 whole entry): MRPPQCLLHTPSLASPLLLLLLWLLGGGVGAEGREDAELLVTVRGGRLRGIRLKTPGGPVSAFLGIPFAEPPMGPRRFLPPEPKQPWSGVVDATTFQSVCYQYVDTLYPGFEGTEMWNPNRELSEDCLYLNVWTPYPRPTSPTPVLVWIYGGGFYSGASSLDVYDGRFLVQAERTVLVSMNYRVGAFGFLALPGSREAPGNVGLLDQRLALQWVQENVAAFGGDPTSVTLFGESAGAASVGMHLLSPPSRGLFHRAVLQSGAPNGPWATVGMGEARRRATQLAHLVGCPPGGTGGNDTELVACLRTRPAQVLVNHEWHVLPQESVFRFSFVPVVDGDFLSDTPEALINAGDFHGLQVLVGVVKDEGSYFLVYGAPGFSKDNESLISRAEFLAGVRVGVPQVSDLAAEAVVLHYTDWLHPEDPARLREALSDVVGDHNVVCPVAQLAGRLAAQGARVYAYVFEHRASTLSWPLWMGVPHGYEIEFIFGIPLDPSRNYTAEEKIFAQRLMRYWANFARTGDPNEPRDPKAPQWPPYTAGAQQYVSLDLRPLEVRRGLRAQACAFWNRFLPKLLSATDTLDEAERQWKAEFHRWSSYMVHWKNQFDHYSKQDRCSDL

Human betaherpesvirus 5 [4] = test: Binding affinity towards mutant alpha-Ala HCMV protease was determined; assay type: functional
Chymotrypsinogen A = Chymotrypsinogen A (Bos taurus, UniProt P00766); test: Concentration required to inhibit the mammalian Chymotrypsinogen by 50% was determined
[5] = Compound was tested for its stability by HPLC method, value expressed as half life; assay type: physicochemical
Homo sapiens = organism: Homo sapiens; test: Concentration required to inhibit the mammalian elastase by 50% was determined; assay type: functional, organism-based
Human betaherpesvirus 5 [6] = test: 50 % concentration required to inhibit the mutant alpha-Ala HCMV protease was determined; assay type: functional
Human betaherpesvirus 5 [7] = test: The compound was evaluated for antiviral activity measured as percentage inhibition determined at a concentration of 100 (uM) against mutant alpha-Ala HCMV protease; assay type: functional

SMILES | Inhibition (Human betaherpesvirus 5 [1]) [%] | IC50 [2] [µM] | also measured
C[C@@H]1C(=O)N(C(=O)NCc2ccccc2)[C@@H]1Oc1ccc(C(=O)O)cc1 | 12 | > 100 | –
CC(=O)O[C@@H]1CC(=O)N1C(=O)NC(C)C | 30 | > 100 | –
CNC(=O)N1CCC1=O | – | – | Inhibition (Human betaherpesvirus 5 [3]): 7.7%
CC(=O)O[C@@H]1[C@@H](C)C(=O)N1C(=O)NCc1ccccc1 | – | 6.5 | –
CC(=O)OC1CC(=O)N1 (stereo not given) | – | – | Inhibition (Human betaherpesvirus 5 [3]): 0%
C[C@H]1C(=O)N(C(=O)NCc2ccccc2)[C@@H]1Oc1ccc(C(=O)O)cc1 | – | 20 | IC50 (Acetylcholinesterase): > 100 µM; Ki (Human betaherpesvirus 5 [4]): 5.6 µM; IC50 (Chymotrypsinogen A): 1.6 µM; half-life [5]: 3.1 h; IC50 (Homo sapiens): 3.9 µM
CCC1(CC)C(=O)N(C(=O)NC)[C@@H]1OC(C)=O | 5 | > 100 | –
CCNC(=O)N1C(=O)C[C@H]1OC(C)=O | 36 | > 100 | –
C[C@H]1C(=O)N(C(=O)NCc2ccccc2)[C@@H]1Oc1ccc(C(=O)C(C)(C)C)cc1 | – | 17 | IC50 (Acetylcholinesterase): > 100 µM; Ki (Human betaherpesvirus 5 [4]): 5.7 µM; IC50 (Chymotrypsinogen A): > 100 µM; half-life [5]: 22.8 h; IC50 (Homo sapiens): > 100 µM
CNC(=O)N1C(=O)C[C@H]1OC(C)=O | 29 | – | IC50 (Human betaherpesvirus 5 [6]): > 100 µM; Inhibition (Human betaherpesvirus 5 [3]): 68.5%
CC(=O)O[C@@H]1[C@H](C)C(=O)N1C(=O)Nc1ccccc1 | – | > 100 | –
CC(=O)O[C@H]1N(C(=O)NCc2ccccc2)C(=O)C1(C)C | 6 | > 100 | –
CC(=O)O[C@@H]1[C@@H](C)C(=O)N1C(=O)Nc1ccccc1 | – | 86 | –
CCCCNC(=O)N1C(=O)C[C@H]1OC(C)=O | – | 68 | Ki (Human betaherpesvirus 5 [4]): 26 µM
CC[C@H]1C(=O)N(C(=O)NCc2ccccc2)[C@@H]1Oc1ccc(C(=O)O)cc1 | – | 50 | Ki (Human betaherpesvirus 5 [4]): 8.3 µM; half-life [5]: 7.6 h
CC(=O)O[C@@H]1CC(=O)N1C(=O)NCc1ccccc1 | – | 42 | Ki (Human betaherpesvirus 5 [4]): 20 µM; half-life [5]: 0.53 h
C[C@@H]1C(=O)N(C(=O)NCc2ccccc2)[C@@H]1Oc1ccc(C(=O)C(C)(C)C)cc1 | 35 | > 100 | –
O=C(O)c1ccc(O[C@@H]2CC(=O)N2C(=O)NCc2ccccc2)cc1 | 48 | > 100 | half-life [5]: 1.4 h
CC(C)NC(=O)N1C(=O)C[C@H]1Oc1ccc(C(=O)O)cc1 | 8 | 100 | –
CC(=O)O[C@@H]1[C@H](C)C(=O)N1C(=O)NCc1ccccc1 | – | 27 | –
O=C(O)c1ccc(O[C@@H]2CC(=O)N2C(=O)Nc2ccccc2)cc1 | 43 | > 100 | –
CC[C@@H]1C(=O)N(C(=O)NCc2ccccc2)[C@@H]1Oc1ccc(C(=O)O)cc1 | – | > 100 | Inhibition (Human betaherpesvirus 5 [7]): 25%
